Experimental data published in paper PMC7897990, “TriTOX: A novel Trichomonas vaginalis assay platform for high-throughput screening of compound libraries” (International Journal for Parasitology: Drugs and Drug …, 2021).
Where two headings read alike, the source gives them in different places. Starred links: 1 amine or outer side, 2 acyl side, 3 side chain; linkers in the order of their positions; H or OH if unused. Positions of bridges follow the written chain, without caps; N, C: chain ends. Non-standard residues stand in square brackets, D forms with d. Residues, ends and D or L forms follow the SMILES beside them. Chains are numbered I, II in the order given. *: point of attachment. Actinocin(9to1) = Cc1c2oc3c(C)ccc(C(=O)[*:1])c3nc-2c(C(=O)[*:2])c(N)c1=O; Ileψ(thiazoline)Cys = CC[C@H](C)[C@H](N)C1=N[C@H](C(=O)*)CS1; NMeV = CN[CH](C(=O)O)C(C)C; dOrn = NCCC[C@@H](N)C(=O)O; Sar = CNCC(=O)O

How the values were obtained:
[1] = tested on: nontumorigenic neonatal foreskin fibroblast (NFF) cell line
[2] = tested on: Trichomonas vaginalis G3 trophozoites; details: for T.vaginalis_Absorbance_Rep1: replicate 1, raw absorbance; for T.vaginalis_Absorbance_Rep2: replicate 2, raw absorbance
[3] = replicate 1, parasite screen at 1 µg/mL
[4] = replicate 2, parasite screen at 1 µg/mL
[5] = NFF_NS1 screen at 5 µg/mL, NFF cells
[6] = parasite screen at 1 µg/mL, replicate 1
[7] = parasite screen at 1 µg/mL, replicate 2
[8] = HTS, parasite screen at 1 µg/mL, replicate 1
[9] = HTS, parasite screen at 1 µg/mL, replicate 2
[10] = NFF fibroblasts, single concentration 5 µg/mL
[11] = HTS replicate 1, parasite screen 1 µg/mL
[12] = HTS replicate 2, parasite screen 1 µg/mL
[13] = HTS, parasite screen at 1 µg/mL
[14] = NFF_NS1 screen 5 µg/mL, single concentration
[15] = HTS single concentration, parasite screen 1 µg/mL, replicate 1
[16] = HTS single concentration, parasite screen 1 µg/mL, replicate 2

Molecule: CO[C@H]1C[C@H](O[C@H]2[C@H](C)O[C@@H](O[C@@H]3/C(C)=C/C[C@@H]4C[C@@H](C[C@]5(CC[C@H](C)[C@@H](C(C)C)O5)O4)OC(=O)[C@@H]4C=C(C)[C@@H](O)[C@H]5OC/C(=C\C=C\[C@@H]3C)[C@]54O)C[C@@H]2OC)O[C@@H](C)[C@@H]1O [BIA-I1117]
- NFF_Activity ([1]; NFF cells, screen at 5 µg/mL): I (otherwise these were reported as inactive (I))
- T.vaginalis_%inb_Rep1 [2, 3]: 14.71%
- T.vaginalis_%inb_Rep2 [2, 4]: 14.82%

Molecule: COc1c(O)c(C)c(C)c(O)c1OC [BIA-H1651]
- NFF_Activity ([1]; NFF cells, screen at 5 µg/mL): A (active (A) compounds having >25% inhibitory activity)
- T.vaginalis_%inb_Rep1 [2, 3]: 13.69%
- T.vaginalis_%inb_Rep2 [2, 4]: 12.19%

Molecule: COc1c(O)cc2cc(C)oc(=O)c2c1O [BIA-R1077]
- NFF_Activity [1, 5]: I (otherwise these were reported as inactive (I))
- T.vaginalis_%inb_Rep1 [2, 6]: 14.76%
- T.vaginalis_%inb_Rep2 [2, 7]: 13.92%

Molecule: CN=C1NC(=O)[C@H]([C@H](C)c2c[nH]c3ccccc23)O1 [BIA-I1040]
- NFF_Activity ([1]; NFF cells, screen at 5 µg/mL): I (otherwise these were reported as inactive (I))
- T.vaginalis_%inb_Rep1 [2, 3]: 25.76%
- T.vaginalis_%inb_Rep2 [2, 4]: 5.58%

Molecule: C=C(C)C1CCC2(C)CCC3(C)C(CCC4C5(C)CCC(O)C(C)(C)C5CCC43C)C12 (stereo not drawn) [BIA-L1759]
- NFF_Activity ([1]; NFF cells, screen at 5 µg/mL): I (otherwise these were reported as inactive (I))
- T.vaginalis_%inb_Rep1 [2, 3]: 12.73%
- T.vaginalis_%inb_Rep2 [2, 4]: 12.70%

Molecule: CS(=O)(=O)c1ccc([C@@H](O)[C@@H](CO)NC(=O)C(Cl)Cl)cc1 [BIA-T1486]
- NFF_Activity [1, 5]: I (otherwise these were reported as inactive (I))
- T.vaginalis_%inb_Rep1 [2, 6]: 8.02%
- T.vaginalis_%inb_Rep2 [2, 7]: 12.00%

Molecule: CN[C@@H]1C[C@H]2O[C@@](C)([C@@H]1OC)n1c3ccccc3c3c4c(c5c6ccccc6n2c5c31)C(=O)N[C@H]4O [UCN-01]
- NFF_Activity ([1]; NFF fibroblast screen at 5 µg/mL, A = active, I = inactive): A (active (A) compounds having >25% inhibitory activity)
- T.vaginalis_%inb_Rep1 [2, 8]: 11.33%
- T.vaginalis_%inb_Rep2 [2, 9]: 13.65%

Molecule: C[C@@H]1Cc2ccc(C(=O)N[C@@H](Cc3ccccc3)C(=O)O)c(O)c2C(=O)O1 [Ochratoxin B]
- NFF_Activity [1, 10]: I (otherwise these were reported as inactive (I))
- T.vaginalis_%inb_Rep1 [2, 11]: 13.18%
- T.vaginalis_%inb_Rep2 [2, 12]: 9.36%

Molecule: Cc1cc(=O)c(O)cc2c1C[C@@H]1CC(C)(C)/C=C/C[C@@]3(C)Oc4cc(O)c(=O)cc(C)c4C[C@@H]3C[C@@H](O)[C@]1(C)O2 [Eupenifeldin]
- NFF_Activity ([1]; NFF_NS1 screen at 5 µg/mL): A (active (A) compounds having >25% inhibitory activity)
- T.vaginalis_%inb_Rep1 [2, 8]: 14.05%
- T.vaginalis_Absorbance_Rep1 [2, 13]: 0.97
- T.vaginalis_%inb_Rep2 [2, 9]: 13.74%
- T.vaginalis_Absorbance_Rep2 [2, 13]: 0.81

Molecule: CC=CC=CC1OC(O)(C(C)C(O)C(C)C2OC(=O)C(OC)=CC(C)=CC(C)C(O)C(C)CC(C)=CC=CC2OC)CC(OC2CC(O)C(O)C(C)O2)C1C (stereo not drawn) [PC-766B]
- NFF_Activity [1, 10]: A (active (A) compounds having >25% inhibitory activity)
- T.vaginalis_%inb_Rep1 [2, 11]: 72.87%
- T.vaginalis_%inb_Rep2 [2, 12]: 76.65%

Molecule: CC1(C)CC[C@]2(C(=O)O)CC[C@]3(C)C(=CC[C@@H]4[C@@]5(C)C[C@@H](O)[C@H](O)[C@@](C)(CO)[C@@H]5CC[C@]43C)[C@@H]2C1 [BIA-A1754]
- NFF_Activity [1, 14]: I (otherwise these were reported as inactive (I))
- T.vaginalis_%inb_Rep1 [2, 15]: 13.25%
- T.vaginalis_%inb_Rep2 [2, 16]: 12.44%

Molecule: CO[C@@H]1[C@@H](O)[C@@H](O)[C@@H](Oc2ccc3c(O)c(NC(=O)c4ccc(O)c(CC=C(C)C)c4)c(=O)oc3c2C)OC1(C)C [Descarbamylnovobiocin]
- NFF_Activity ([1]; NFF_NS1 screen at 5 µg/mL): I (otherwise these were reported as inactive (I))
- T.vaginalis_%inb_Rep1 [2, 8]: 9.75%
- T.vaginalis_Absorbance_Rep1 [2, 13]: 0.89
- T.vaginalis_%inb_Rep2 [2, 9]: 9.69%
- T.vaginalis_Absorbance_Rep2 [2, 13]: 0.754

Molecule: C=C(C)[C@@H]1CC[C@]2(C(=O)OC)CC[C@]3(C)[C@H](CC[C@@H]4[C@@]5(C)CC[C@H](O)C(C)(C)[C@@H]5CC[C@]43C)[C@@H]12 [BIA-M1757]
- NFF_Activity [1, 14]: I (otherwise these were reported as inactive (I))
- T.vaginalis_%inb_Rep1 [2, 15]: 14.81%
- T.vaginalis_%inb_Rep2 [2, 16]: 16.56%

Molecule: COC(=O)C1=CO[C@@H](C)[C@@H]2CN3CCc4c([nH]c5cc(OC)c(OC)cc45)[C@H]3C[C@H]12 [BIA-R1946]
- NFF_Activity [1, 5]: I (otherwise these were reported as inactive (I))
- T.vaginalis_%inb_Rep1 [2, 6]: 11.06%
- T.vaginalis_%inb_Rep2 [2, 7]: 13.59%

Molecule: CCC[C@H](O)C[C@@H]1CC[C@H](C)CCCCC(=O)N(C)[C@@H](Cc2ccc(OCCO)cc2)C(=O)O1 [PF1163A]
- NFF_Activity [1, 10]: I (otherwise these were reported as inactive (I))
- T.vaginalis_%inb_Rep1 [2, 11]: 11.61%
- T.vaginalis_%inb_Rep2 [2, 12]: 10.39%

Molecule: C=CC1(C)CC(OC(=O)CSC2CC3CCC(C2)N3C)C2(C)C(C)CCC3(CCC(=O)C32)C(C)C1O (stereo not drawn) [BIA-R1491]
- NFF_Activity [1, 5]: I (otherwise these were reported as inactive (I))
- T.vaginalis_%inb_Rep1 [2, 6]: 10.45%
- T.vaginalis_%inb_Rep2 [2, 7]: 11.55%

Molecule: Cc1c2oc3c(C)ccc(C(=O)NC4C(=O)NC(C(C)C)C(=O)N5CCCC5C(=O)N(C)CC(=O)N(C)C(C(C)C)C(=O)OC4C)c3nc-2c(C(=O)NC2C(=O)NC(C(C)C)C(=O)N3CCCC3C(=O)N(C)CC(=O)N(C)C(C(C)C)C(=O)OC2C)c(N)c1=O (stereo not drawn) [BIA-A1185] (I: TVP[Sar][NMeV] / II: TVP[Sar][NMeV]; ester I:1-I:C, II:1-II:C; linker I:N-II:N via Actinocin(9to1); configuration not given here)
- NFF_Activity [1, 14]: I (otherwise these were reported as inactive (I))
- T.vaginalis_%inb_Rep1 [2, 15]: 0.00%
- T.vaginalis_%inb_Rep2 [2, 16]: 40.20%

Molecule: CC[C@H](C)[C@H](N)C1=N[C@H](C(=O)N[C@@H](CC(C)C)C(=O)N[C@H](CCC(=O)O)C(=O)N[C@H](C(=O)N[C@H]2CCCCNC(=O)[C@H](CC(N)=O)NC(=O)[C@@H](CC(=O)O)NC(=O)[C@H](Cc3cnc[nH]3)NC(=O)[C@@H](Cc3ccccc3)NC(=O)[C@H]([C@@H](C)CC)NC(=O)[C@@H](CCCN)NC2=O)[C@@H](C)CC)CS1 [BIA-B1784] ({Ileψ(thiazoline)Cys}-L[dE]IK[dOrn]I[dF]H[dD]N; lactam 4-C)
- NFF_Activity [1, 14]: I (otherwise these were reported as inactive (I))
- T.vaginalis_%inb_Rep1 [2, 15]: 15.89%
- T.vaginalis_%inb_Rep2 [2, 16]: 9.69%

Molecule: Eprinomectin
- NFF_Activity ([1]; NFF_NS1 screen at 5 µg/mL): I (otherwise these were reported as inactive (I))
- T.vaginalis_%inb_Rep1 [2, 8]: 12.49%
- T.vaginalis_Absorbance_Rep1 [2, 13]: 0.941
- T.vaginalis_%inb_Rep2 [2, 9]: 15.33%
- T.vaginalis_Absorbance_Rep2 [2, 13]: 0.832

Molecule: COc1oc([C@H]2C/C(=C/C(C)=C/c3ccc([N+](=O)[O-])cc3)CO2)c(C)c(=O)c1C [BIA-A1009]
- NFF_Activity [1, 14]: I (otherwise these were reported as inactive (I))
- T.vaginalis_%inb_Rep1 [2, 15]: 12.82%
- T.vaginalis_%inb_Rep2 [2, 16]: 5.78%

Molecule: CC(=O)OC[C@]12[C@H](O)C(=O)C(C)=C[C@H]1O[C@@H]1[C@H](O)C[C@@]2(C)[C@]12CO2 [BIA-A1922]
- NFF_Activity [1, 14]: I (otherwise these were reported as inactive (I))
- T.vaginalis_%inb_Rep1 [2, 15]: 7.13%
- T.vaginalis_%inb_Rep2 [2, 16]: 15.54%

Molecule: CC1=C[C@H]2O[C@@H]3[C@H](O)[C@@H](O)[C@](C)([C@@]2(CO)C[C@@H]1O)[C@]31CO1 [BIA-T1932]
- NFF_Activity [1, 5]: I (otherwise these were reported as inactive (I))
- T.vaginalis_%inb_Rep1 [2, 6]: 10.49%
- T.vaginalis_%inb_Rep2 [2, 7]: 13.71%

Molecule: COc1cc2c(c3oc(=O)c4c(c13)CCOC4=O)[C@@H]1CCO[C@@H]1O2 [BIA-A1235]
- NFF_Activity [1, 14]: I (otherwise these were reported as inactive (I))
- T.vaginalis_%inb_Rep1 [2, 15]: 12.33%
- T.vaginalis_%inb_Rep2 [2, 16]: 13.81%
